How the values were obtained:
p110alpha H107R = settings: cited from earlier work
Jnk1 + Jnk2 = test system: T1, Jnk1 + Jnk2; assay: Cell-free kinase assay (ALPHA technology) Jnk1 + Jnk2; type: biochemical, human; settings: 10 μM ATP
T1 construct: fused on or other part: GST tag or His tag (commercial recombinant fusion proteins from Proqinase or Upstate)
Description: (§1) The inhibitory effect of the compounds of the invention was tested on various human serine/threonine kinases, tyrosine kinases and lipid kinases in enzymatic assays. Recombinant human kinases, for example PI3Kalpha, -beta, -gamma, -delta, Erk2, p38alpha, p38gamma, Jnk1, Jnk2 and others were used, in some cases as full-length kinases, in some cases as truncated fragments—but at least consisting of the functional kinase domains. The commercial kinase proteins (Proqinase, Upstate) were used as recombinant fusion proteins with GST (glutathione S-transferase) tag or His tag. Depending on the substrate type, the different kinase reactions were quantified by suitable ALPHA™ beads (PerkinElmer).
(§2) The kinase assays for PI3K and Erk are described in detail and selected test results are cited below. […] Subsequently, the kinase reaction was stopped by adding the ALPHA bead mix (10 μg/ml, #6760603/PerkinElmer), preincubated with 1 nM GST:Grp1 fusion protein (Upstate) and […] (#C-39B6/Echelon) in 50 mM Hepes, 50 mM NaCl, 50 mM EDTA and 0.1% BSA, and left to stand overnight. • b) Erk2-ALPHA: The test substance, 0.625 ng of Erk2 (#14-173, Upstate), 10 μM ATP and 15 nM biotinylated MBP (myelin basic protein) substrate were incubated on a 384-well Optiplate (Perkin Elmer) in a volume of 15 μl for 1 h in 25 mM Tris, 10 mM MgCl2, 0.1% Tween-20, 100 μM NaVO4, 2 mM DTT at pH 7.5. The kinase reaction was stopped by adding 10 μl of the ALPHA bead mix (10 μg/ml, #6760617/PerkinElmer), pre-incubated with anti-phospho MBP antibody (320 pM, #05-429/Upstate), in 25 mM Tris, 200 mM NaCl, 100 mM EDTA and 0.3% BSA, and left to stand overnight.
(§3) The luminiscence was detected the next morning in a Fusion™ alpha instrument (Perkin Elmer).
(§4) The calculation of % inhibition values per substance concentration was done by means of the following formula from the raw data determined in the Fusion™ alpha:
(§5) The controls were determined 8 fold and the substance samples 2 fold. 0% control contained neither any ATP nor any substrate. The 100% control contained no test substance. The IC50 values were determined with GraphPadPrism.

p38alpha = p38alpha (Homo sapiens, UniProt Q16539); assay: Cell-free kinase assay (ALPHA technology) p38alpha; type: biochemical; settings: 10 μM ATP
Sequence of p38alpha (Q16539 whole entry): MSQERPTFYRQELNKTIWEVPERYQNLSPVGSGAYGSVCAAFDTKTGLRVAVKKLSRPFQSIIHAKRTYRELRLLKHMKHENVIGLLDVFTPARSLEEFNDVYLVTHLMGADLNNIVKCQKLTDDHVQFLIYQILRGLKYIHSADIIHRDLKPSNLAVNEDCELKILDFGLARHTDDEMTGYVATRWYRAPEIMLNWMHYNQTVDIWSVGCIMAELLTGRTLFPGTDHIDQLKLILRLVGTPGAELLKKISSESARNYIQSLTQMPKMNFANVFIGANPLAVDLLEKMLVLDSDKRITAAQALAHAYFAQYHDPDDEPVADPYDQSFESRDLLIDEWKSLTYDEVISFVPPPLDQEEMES
Description: as §1, §2, §3, §4, §5

Phospho-Akt (Ser 473) = assay: Cellular substrate phosphorylation (Western blotting), PI3K →pAkt; type: cell-based, human
Description: (§6) This method enables a statement of whether the kinase modulator investigated achieves the desired effect in a cellular context too, i.e., in this case, a substrate protein downstream of the target kinase is examined for its phosphorylation status. To this end, the cells incubated with substance are lysed and the overall protein is separated on a reducing polyacrylamide gel. Subsequently, the proteins are transferred to a PVDF membrane by Western blotting and the substrate bands sought are made visible with specific antibodies and a suitable detection method. The substrate proteins down-stream of the target kinases are detected simultaneously with an anti-phospho antibody which is specific in each case and a total antibody which recognizes the substrate total protein. The duplex technology of the ODYSSEY imager (LiCOR) enables this simultaneous measurement. The intensity of the total substrate bands is employed to normalize and quantify the phosphorylation inhibition or activation.
(§7) Suitable tumor cell lines (e.g. BxPC3, Hct116 or MDA MB468) were seeded into 6-well microtitre plates in a defined cell count (e.g. 350 000 cells/well for BxPC3 and Hct116) in the particular standard complete media and then incubated overnight at 37° C., 5% CO2 and 95% air humidity. Afterwards, the cells were incubated for 24 h under serum-reduced conditions, i.e. in the particular medium except at only 0.25% serum. The test substances were made up as stock solutions (10 mM) in DMSO and incubated with the cells at final concentrations of 5, 15.8 and 50 μM for 5 h. This was followed by cell lysis in 25 mM Tris, 150 mM NaCl, 10 mM sodium pyrophosphate, 2 mM EGTA, 25 mM beta-glycerophosphate, 25 mM NaF, 10% glycerol, 0.75% NP-40, 100 μM NaVO4 buffer. After protein quantification using the BCA (bicinchonic acid protein assay kit, Sigma) assay, amounts of protein of about 20 μg per track were separated on a Lämmli polyacrylamide gel and then transferred onto a PVDF membrane (Millipore) by semi-dry Western blotting at 0.8 mA/cm^2 for 1 h. This was followed by prehybridization of the membrane for 1 hour in I-block reagent (Applied Biosystems) and overnight simultaneous incubation with the specific antibodies. […] After the membrane had been washed, the secondary antibodies were incubated with anti-rabbit IR Dye 800 (#611-732-127, Rockland) for the phospho antibodies and anti-goat Alexa Fluor 680 (#A-21081, […]) for the total protein antibodies. After incubation for 30 min at room temperature in the dark, the hybridization of the detection antibody was detected on the membrane by scanning in an ODYSSEY imager (LiCOR).

PI3Kalpha = molecular target: T2, PI3Kalpha (Homo sapiens, UniProt P42336); assay: Cell-free kinase assay PI3K-ALPHA; type: biochemical
T2 construct: purchased Upstate #14-602
T2 sequence (P42336 whole entry): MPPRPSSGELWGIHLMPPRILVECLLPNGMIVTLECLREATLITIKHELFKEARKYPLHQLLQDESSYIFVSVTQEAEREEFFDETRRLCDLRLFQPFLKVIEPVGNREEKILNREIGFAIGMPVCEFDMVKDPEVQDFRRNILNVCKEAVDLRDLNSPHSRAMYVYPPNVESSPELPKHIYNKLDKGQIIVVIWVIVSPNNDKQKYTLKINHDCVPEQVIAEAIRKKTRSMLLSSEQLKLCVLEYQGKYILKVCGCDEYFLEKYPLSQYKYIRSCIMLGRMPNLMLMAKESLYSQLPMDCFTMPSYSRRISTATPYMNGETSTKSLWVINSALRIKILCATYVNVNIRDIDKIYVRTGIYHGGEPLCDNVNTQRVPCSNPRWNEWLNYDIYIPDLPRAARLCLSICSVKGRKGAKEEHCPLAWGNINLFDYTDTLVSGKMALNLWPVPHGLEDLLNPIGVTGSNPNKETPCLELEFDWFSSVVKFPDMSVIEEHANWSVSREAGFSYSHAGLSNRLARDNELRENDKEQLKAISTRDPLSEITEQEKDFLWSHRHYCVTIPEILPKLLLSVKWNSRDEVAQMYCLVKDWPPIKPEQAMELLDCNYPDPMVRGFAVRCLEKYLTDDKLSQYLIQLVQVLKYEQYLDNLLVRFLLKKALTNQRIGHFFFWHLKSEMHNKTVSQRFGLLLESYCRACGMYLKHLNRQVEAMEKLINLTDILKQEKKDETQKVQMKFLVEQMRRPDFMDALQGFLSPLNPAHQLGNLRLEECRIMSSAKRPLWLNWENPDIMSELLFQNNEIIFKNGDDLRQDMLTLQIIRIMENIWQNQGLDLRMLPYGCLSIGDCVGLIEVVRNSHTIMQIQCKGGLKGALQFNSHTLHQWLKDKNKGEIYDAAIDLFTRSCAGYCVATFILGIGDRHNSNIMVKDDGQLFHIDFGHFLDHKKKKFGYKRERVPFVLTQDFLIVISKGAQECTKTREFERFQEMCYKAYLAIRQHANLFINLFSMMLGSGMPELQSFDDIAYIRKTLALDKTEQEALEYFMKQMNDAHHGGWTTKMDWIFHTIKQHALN
T2 sequence (P27986 whole entry partner): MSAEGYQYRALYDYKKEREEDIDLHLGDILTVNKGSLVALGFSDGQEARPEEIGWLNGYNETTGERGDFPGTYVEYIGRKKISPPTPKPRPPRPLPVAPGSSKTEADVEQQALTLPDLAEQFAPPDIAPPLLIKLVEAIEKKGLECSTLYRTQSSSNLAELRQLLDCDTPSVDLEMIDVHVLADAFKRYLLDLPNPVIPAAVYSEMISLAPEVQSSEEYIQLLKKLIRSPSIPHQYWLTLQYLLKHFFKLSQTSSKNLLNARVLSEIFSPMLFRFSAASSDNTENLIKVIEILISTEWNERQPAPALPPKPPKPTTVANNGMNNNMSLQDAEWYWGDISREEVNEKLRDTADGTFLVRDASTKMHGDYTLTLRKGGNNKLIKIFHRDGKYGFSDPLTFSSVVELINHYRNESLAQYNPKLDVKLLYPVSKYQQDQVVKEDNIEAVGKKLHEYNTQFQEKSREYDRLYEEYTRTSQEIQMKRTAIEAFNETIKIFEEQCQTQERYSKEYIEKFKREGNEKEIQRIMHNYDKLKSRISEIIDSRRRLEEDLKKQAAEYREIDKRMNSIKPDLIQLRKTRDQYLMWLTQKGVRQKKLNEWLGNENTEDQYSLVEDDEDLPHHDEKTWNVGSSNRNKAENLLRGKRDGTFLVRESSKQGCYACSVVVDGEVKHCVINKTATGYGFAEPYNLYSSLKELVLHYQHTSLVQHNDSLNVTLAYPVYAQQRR
Description: as §1, §2, §3, §4, §5

Erk2 = molecular target: T3, Erk2 (Mus musculus, UniProt P63085); assay: Cell-free kinase assay Erk2-ALPHA; type: biochemical, human; settings: 10 μM ATP
T3 construct: purchased Upstate #14-173
T3 sequence (P63085 whole entry): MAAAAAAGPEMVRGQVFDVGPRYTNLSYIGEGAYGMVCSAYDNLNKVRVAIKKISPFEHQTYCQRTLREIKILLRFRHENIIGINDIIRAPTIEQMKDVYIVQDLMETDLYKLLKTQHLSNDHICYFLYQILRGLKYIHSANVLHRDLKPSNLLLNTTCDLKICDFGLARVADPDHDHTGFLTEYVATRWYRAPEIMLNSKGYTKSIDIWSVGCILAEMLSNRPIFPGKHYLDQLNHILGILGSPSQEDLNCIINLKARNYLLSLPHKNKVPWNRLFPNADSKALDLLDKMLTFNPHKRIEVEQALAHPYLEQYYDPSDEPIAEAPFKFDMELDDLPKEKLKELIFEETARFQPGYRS
Description: as §1, §2, §3, §4, §5

[1] = Cell-free kinase assay Erk2-ALPHA; type: biochemical, human; settings: cell-free kinase assay; MAPK = Erk2, p38alpha, Jnk1+Jnk2 of Table 1
Description: as §1, §2, §3, §4, §5

MDA-MB468 = assay: XTT assay, anti-proliferative activity, MDA-MB468; type: cell-based; settings: Homo sapiens, MDA-MB-468; 45 h incubation
Description: (§8) The principle of this test is based on the intracellular reduction of the tetrazolium dye XTT (sodium 3′-[1-(phenylaminocarbonyl)-3,4-tetrazolium]bis(4-methoxy-6-nitro)benzenesulphonic acid, Sigma) to a formazan dye by mitochondrial dehydrogenases. The dye is formed only by metabolically active cells. Its photometrically measurable intensity is a quantitative indicator for the presence of living cells. The reduction in the dye formation as a result of incubation of the cells with substances serves as a parameter for the anti-proliferative activity.
(§9) The tumour cell lines (ATCC) were seeded in 96-well microtitre plates in a defined cell count (5000 cells/well for Hct116; 10000 cells/well for MDA MB468), and incubated overnight at 37° C., 5% CO2 and 95% air humidity. The test substances were made up as stock solutions (10 mM) in DMSO. […] The cell plates were then incubated for 45 h at 37° C., 5% CO2 and 95% air humidity.
(§10) For the detection reaction, the XTT substrate was mixed with PMS (N-methyldibenzopyrazine methylsulphate, Sigma) and added to the cells, to result in a final concentration of 325 μg of XTT/ml and 2.5 μg PMS/ml. The mixture was then incubated for 3 h at 37° C., 95% air humidity. Subsequently the formazan salt formed by cellular dehydrogenases was quantified at an absorption of 490 nm.
(§11) The evaluation of the % inhibition values was done by means of the following formula from the values for the optical densities measured in each case at 490 nm:
(§12) The controls were determined 8 fold, the substance samples 2 fold. 0% control contained no cells and the 100% control contained no test substance. The EC50 values were determined with GraphPadPrism.

Phospho-p90RSK (S380) = assay: Cellular substrate phosphorylation (Western blotting), Erk →pRsk; type: cell-based, human
Description: as §6, §7

Hct116 = assay: XTT assay, anti-proliferative activity, Hct116; type: cell-based; settings: Homo sapiens, HCT-116; 45 h incubation
Description: as §8, §9, §10, §11, §12

[2] = Western blotting, concentrations of 5-50 μM

IC50 (Jnk1 + Jnk2) [µM]	IC50 (p38alpha) [µM]	PI3K inhibition, in words (PI3Kalpha)	IC50 (Erk2) [µM]	Erk2 / MAPK inhibition, in words [1]	EC50 (MDA-MB468) [µM]	melting point [°C]	EC50 (Hct116) [µM]	Compound	IC50 (p110alpha H107R) [µM]	inhibition at 50 µM (Phospho-Akt (Ser 473); Homo sapiens, at 50 μM, 5 h) [%]	inhibition of cellular phospho-Akt / PI3K-Akt pathway, in words (Phospho-Akt (Ser 473); [2])	inhibition at 50 µM (Phospho-p90RSK (S380); Homo sapiens, at 50 μM, 5 h) [%]	inhibition of phospho-Rsk / Raf-Mek-Erk pathway, in words (Phospho-p90RSK (S380); [2])
–	–	–	–	–	–	–	–	Cn1c(=O)n(-c2ccc(C(C)(C)C#N)cc2)c2c3cc(-c4cnc5ccccc5c4)ccc3ncc21 [BEZ-235]	0.018	–	–	–	–
> 100	< 10	PI3K inhibition	> 100	no or only moderate MAPK inhibition	< 5	243 to 246	< 5	CCNC(=O)Nc1ccc2ncc(Nc3ccccc3O)nc2n1 [Compound 55, 1-Ethyl-3-[3-(2-hydroxy-phenylamino)-pyrido[2,3-b]pyrazin-6-yl]-urea]	–	90	cellular PI3K selectivity	0	do not block the Raf-Mek-Erk pathway
